Reference: patent publication US20120079612A1, “Dry eye animal model” (West Virginia University, priority 2010, published 2012)
Values belong to the compound of their own block, whether it stands above or below them.

Assays:
Serum E2 levels = assay type: in vivo, Sprague-Dawley rats; conditions: Example 2: rats at 18 months after 1.5 mg 90-day pellet implanted at 15 months; compared to Intact (placebo) rats
Description: Female Sprague-Dawley rats, age 15 months, were subcutaneously implanted with placebo pellets and E2 rats received pellets containing 1.5 mg of 17β-estradiol in a 90-day time-release matrix. Both groups received treatment until they reached 18 months of age. Serum E2 levels were measured from blood collected prior to randomization to treatment groups and again at time of euthanasia. […] Serum E2 levels of rats prior to randomization at 15 months of age (Pre) and two weeks before gland excision, at 18 months of age (Post). […] Also, Tear Volume Assessment and Tear Break-up Time both have been examined in the rats. […] TBUT was also altered by estrogen treatment with E2 rats having a significant reduction in time to first tear disruption compared to Intact rats (16.4±1.1 sec and 33.7±1.9 sec, respectively; p<0.001) (FIG. 5). Tear volume was measured in 18 month old female rats during 3 months of E2 or placebo supplementation. […] (B) Tear break up time was also measured in rats receiving placebo or E2 treatment using fluorescein sodium (0.25%).

female rats [1] = test: Tear breakup time (TBUT), Fluress and slit lamp; assay type: in vivo, Sprague-Dawley rats
Description: (§1) Female rats of 9 months of age were ovariectomized and immediately supplemented with 1.5 mg of 17β-estradiol in three, separate 90-day time release pellets until 18 months. Three experimental groups were used with ovaries excised from rats in treatment […] (FIG. 1). Group 1 underwent a sham ovariectomy and was implanted with placebo pellet, Group 2 underwent an ovariectomy and was implanted with placebo pellet, and Group 3 underwent an ovariectomy and was implanted with E2 pellet. The three groups had tear breakup time and tear volume tested. […] The time lapse between the last blink and the first randomly distributed dry spot on the cornea using a portable slit lamp was recorded. The process was repeated 3 times for each subject and the results recorded (FIG. 2). […] Rats received 0.5 uL Fluress onto the eye, then the eye was manually blinked 3 times, and the modified Schirmer's strip was placed in the upper fornix for 5 minutes for assessment of tear volume and the volume was recorded (FIG. 3).
(§2) Female Sprague-Dawley rats, age 15 months, were subcutaneously implanted with placebo pellets and E2 rats received pellets containing 1.5 mg of 17β-estradiol in a 90-day time-release matrix. […] Serum E2 levels were measured from blood collected prior to randomization to treatment groups and again at time of euthanasia. […]

female rats [2] = test: Tear volume, modified Schirmer's test; assay type: in vivo, Sprague-Dawley rats
Description: as §1, §2

women = conditions: compared to non-treated women of the same age, the estrogen-alone figure is for women with prior hysterectomy; cited from earlier work
[3] = Example 1: rats ovariectomized at 9 months, 1.5 mg 17β-estradiol 90-day pellets until 18 months, compared to control groups 1 and 2
[4] = Example 2: post-menopausal rats at 18 months, 3 months of E2 supplementation, p<0.001 vs Intact rats

serum E2 levels (Serum E2 levels): significantly elevated
Compound: C[C@]12CC[C@@H]3c4ccc(O)cc4CC[C@H]3[C@@H]1CC[C@@H]2O [E2, 17β-estradiol]
tear break up time (female rats [1]; [3]): shorter tear break up time
TBUT, time to first tear disruption (female rats [1]; [4]): 16.4 ± 1.1 s
tear volume (female rats [2]; [3]): reduced tear volume
tear volume (female rats [2]; [4]): 7.4±0.58 mm

Compound: estrogen
increase of KCS (women): ~70%
